# Experimental data published in patent US20130005811A1, “ANTIMICROBIAL TREATMENT FOR SEEDS AND SPROUTS” (priority 2010, published 2013).
# Assays:
# S. typhimurium DT 104 = assay: Salmonella on alfalfa seeds with an initial inoculum of 10^4 CFU/g; assay type: cell-based, Salmonella typhimurium DT104
# Experimental: Five isolates of Escherichia coli O157:H7, including strain 932 (human isolate), E009 (beef isolate), E0018 (cattle isolate), E0122 (cattle isolate), E0139 (deer jerky isolate); and five isolates of Salmonella typhimurium DT104, including strain H2662 (cattle isolate), 11942A (cattle isolate), 13068A (cattle isolate), 152N17-1 (dairy isolate) and H3279 (human isolate) were used. Nalidixic acid-resistant (50 μg/ml) E. coli O157:H7 were used to facilitate enumeration. Each E. coli O157:H7 and Salmonella strain was grown in tryptic soy broth (TSB, Beckon Dickinson, Sparks, Md.) at 37° C. for 18 hr. Approximately equal cell numbers of each of the five strains were combined and used as a 5-strain mixture with cell numbers being adjusted by spectrophotometric (Spectronic Instruments, Rochester, N.Y.) determination as described in Zhao et al., (2009) J. Food Prot. 72: 928-936, incorporated herein by reference in its entirety. Bacterial cell numbers were confirmed by plating 0.1 ml of serial dilutions (1:10) in 0.1% peptone on tryptic soy agar (TSA, Beckon Dickinson) and Sorbitol MacConkey agar (SMA, Oxoid, Hampshire, UK) for E. coli O157:H7, and TSA and XLD agar (Beckon Dickinson) for Salmonella and incubating all plates at 37° C. for 24 hr, after which colonies were counted.
# Levulinic acid (0.5%) and 0.05% sodium dodecyl sulfate (SDS) obtained from Sigma-Aldrich (St. Louis, Mo.) were tested in combination at 21±2° C. for their antimicrobial activity to E. coli O157:H7 and S. typhimurium on alfalfa seeds as a wash treatment. Calcium hypochlorite (Arch Chemicals, Smyrna, Ga.) at 20,000 μg/ml (ppm) was used as the positive control, and deionized water was used as the negative control.
# Before each trial, 25 ml of sterile tap water and 25 g of alfalfa seeds were added to a WHIRL-PAK® bag (Nasco, Fort Atkinson, Wis.) and pummeled in a stomacher blender at 150 rpm for 1 min. Duplicate 0.1 ml portions of the contents were plated on SMA, XLD, and TSA plates to detect E. coli O157:H7 and Salmonella, and enumerate aerobic bacteria counts according to the protocols described below. Only E. coli O157:H7-negative and Salmonella-negative alfalfa seeds were used. Dry seeds (50 g) were individually placed in a sterilized glass beaker (1 L) and 5 ml of a mixture of E. coli O157:H7 or S. typhimurium DT 104 (high inocula at 10^8-10^9 CFU/ml and low inocula at 10^3-10^4 CFU/ml) was inoculated on the surface of the seeds in each glass beaker under a laminar flow hood. A sterile plastic spoon was used to mix for 2 min the seeds with bacterial suspension. […]
# Inactivation of E. coli O157:H7 and Salmonella on Alfalfa Seeds: Inoculated, dried alfalfa seeds (50 g samples) were placed in a 1000 ml glass beaker containing 200 ml of treatment solution and agitated by a magnetic stir bar at 150 ppm at 21° C. for 0, 1, 2, 5, 10, 20, 30, and 60 min. Following treatment, 25 g of seeds was placed in a stomacher bag containing 25 ml 0.1M phosphate buffer, pH 7.2 (PBS) for levulinic acid plus SDS-treated seeds or neutralizing buffer ([…], Ltd., Worthing, England). The suspension was serially (1:10) diluted in 0.1% peptone water and 0.1 ml of each dilution was surface-plated in duplicate onto TSA and Sorbitol MacConkey agar containing 50 μg nalidixic acid/ml (TSA-NA and SMA-NA) for E. coli O157:H7, and on TSA and XLD containing ampicillin (32 μg/ml), tetracycline (16 μg/ml) and streptomycin (64 μg/ml) (TSA+ and XLD+) for S. typhimurium DT 104. All plates were incubated at 37° C. for 48 hr.
# E. coli O157:H7 = E. coli O157:H7 on alfalfa seeds with an initial inoculum of 10^4 CFU/g; assay type: cell-based, Escherichia coli O157:H7
# [1] = 10 min in glass beaker then pummeled 10 min in stomacher bag
# [2] = dried at 21° C. for 2 hr, treated for 20 min (10 min in beaker and 10 min in a stomacher bag) at 21° C.
# [3] = none pathogen-positive by direct plating
compound,measurement,setting,value
"[Ca+2].[O-]Cl.[O-]Cl [20,000 ppm, Ca(OCl)2, pH 11.4, Calcium hypochlorite]",Salmonella on treated seeds by direct plating method,S. typhimurium DT 104; [1],negative
same,S. typhimurium DT 104 count in sample No. 1-10 (seeds),S. typhimurium DT 104; [2],−
same,S. typhimurium DT 104 count in sample No. 1-10 (treated supernatant),S. typhimurium DT 104; [2],−
same,Salmonella in solutions used for treatment,S. typhimurium DT 104; enrichment culture after use,negative
same,Salmonella detection in samples treated for 10 min,S. typhimurium DT 104; [3],sporadically positive by enrichment culture assay
same,E. coli O157:H7 on treated seeds by direct plating method,E. coli O157:H7; [1],negative
same,E. coli O157:H7 count in sample No. 1-10 (seeds),E. coli O157:H7; [2],−
same,E. coli O157:H7 count in sample No. 1-10 (treated supernatant),E. coli O157:H7; [2],−
same,E. coli O157:H7 in solutions used for treatment,E. coli O157:H7; enrichment culture after use,negative
same,E. coli O157:H7 detection in samples treated for 10 min,E. coli O157:H7; [3],sporadically positive by enrichment culture assay
